US9920059B2, “Heterocyclic compounds as pesticides” (BAYER CROPSCIENCE AKTIENGESELLSCHAFT, priority 2014, dated 2018)
Read-outs that look alike come from different tables or passages of the source.

Tests used:
[1] = test system: green peach aphid (Myzus persicae); test: Myzus persicae spray test (MYZUPE), bell pepper plants; assay type: in vivo; details: after 6 days
Experimental: Myzus Persicae—Spray Test (MYZUPE) • Solvent: 7 parts by weight of dimethylformamide • Emulsifier: alkylaryl polyglycol ether To produce an appropriate active ingredient preparation, 1 part by weight of active ingredient is dissolved using the specified parts by weight of solvent and made up with water containing an emulsifier concentration of 1000 ppm until the desired concentration is attained. To produce further test concentrations, the preparation is diluted with emulsifier-containing water. If the addition of ammonium salts or/and penetrants is required, these are each added in a concentration of 1000 ppm to the preparation solution. Bell pepper plants (Capsicum annuum) severely infested with the green peach aphid (Myzus persicae) are treated by spraying with the active ingredient preparation in the desired concentration. After 6 days, the kill in % is determined. 100% means that all the aphids have been killed; 0% means that no aphids have been killed.

[2] = log P by HPLC on reversed-phase C18 columns, OECD Guideline 117; assay type: physicochemical; details: for chromatographic logP: reversed-phase C18 HPLC column; for logP [a]: pH 2.7; for logP [b]: pH 7.8
Experimental: The log P values were determined in accordance with OECD Guideline 117 (EC Directive 92/69/EEC) by HPLC (high-performance liquid chromatography) using reversed-phase (RP) columns (C18), by the following methods: [a] The LC-MS determination in the acidic range is effected at pH 2.7 with 0.1% aqueous formic acid and acetonitrile (contains 0.1% formic acid) as eluents; linear gradient from 10% acetonitrile to 95% acetonitrile. [b] LC-MS determination in the neutral range is effected at pH 7.8 with 0.001 molar aqueous ammonium hydrogencarbonate solution and acetonitrile as eluents; linear gradient from 10% acetonitrile to 95% acetonitrile. Calibration is effected with unbranched alkan-2-ones (having 3 to 16 carbon atoms) with known log P values (log P values determined on the basis of the retention times by linear interpolation between two successive alkanones).

[3] = test system: adult houseflies (Musca domestica); test: Musca domestica test (MUSCDO); assay type: in vivo; details: application rate 100 ppm, after 2 days
Experimental: Musca domestica Test (MUSCDO) • Solvent: dimethyl sulphoxide To prepare an appropriate active ingredient preparation, 10 mg of active ingredient are mixed with 0.5 ml of dimethyl sulphoxide, and the concentrate is diluted with water to the desired concentration. Vessels containing a sponge treated with sugar solution and the active ingredient preparation of the desired concentration are populated with 10 adult houseflies (Musca domestica). After 2 days, the kill in % is determined. 100% means that all of the flies have been killed; 0% means that none of the flies have been killed.

[4] = test system: green peach aphid (Myzus persicae); test: Myzus persicae spray test (MYZUPE), Chinese cabbage leaf discs; assay type: in vivo; details: after 6 days
Experimental: Myzus persicae—Spray Test (MYZUPE)
• Solvent: 78 parts by weight of acetone • 1.5 parts by weight of dimethylformamide • Emulsifier: alkylaryl polyglycol ether
(§1) To produce an appropriate active ingredient preparation, 1 part by weight of active ingredient is dissolved using the specified parts by weight of solvent and made up with water containing an emulsifier concentration of 1000 ppm until the desired concentration is attained. To produce further test concentrations, the preparation is diluted with emulsifier-containing water.
Discs of Chinese cabbage leaves (Brassica pekinensis) infested with all stages of the green peach aphid (Myzus persicae) are sprayed with an active ingredient preparation of the desired concentration.
After 6 days, the efficacy in % is determined. 100% means that all the aphids have been killed; 0% means that none of the aphids have been killed.

[5] = test system: greenhouse red spider mite (Tetranychus urticae); test: Tetranychus urticae spray test, OP-resistant (TETRUR), bean leaf discs; assay type: in vivo; details: application rate 500 g/ha, after 6 days
Experimental: Tetranychus urticae—Spray Test, OP-Resistant (TETRUR)
• Solvent: 78.0 parts by weight of acetone • 1.5 parts by weight of dimethylformamide • Emulsifier: alkylaryl polyglycol ether
as §1
Discs of bean leaves (Phaseolus vulgaris) infested with all stages of the greenhouse red spider mite (Tetranychus urticae) are sprayed with an active compound preparation of the desired concentration.
After 6 days, the efficacy in % is determined. 100% means that all the spider mites have been killed; 0% means that none of the spider mites have been killed.

[6] = acidic range, pH 2.7, 0.1% aqueous formic acid/acetonitrile, read-out: log P[a]
[7] = neutral range, pH 7.8, ammonium hydrogencarbonate/acetonitrile, read-out: log P[b]
[8] = acidic range, NMR peak list table
[9] = neutral range, NMR peak list table

SMILES	efficacy in % ([4]; application rate 500 g/ha) [%]	logP [a] [2, 8]	logP [b] [2, 9]	other results
Cc1cc(F)c(-n2cnc3nn(-c4cccnc4)cc3c2=O)cc1SCC(F)(F)F [I-1-1, 5-{2-Fluoro-4-methyl-5-[(2,2,2-trifluoroethyl)sulphanyl]phenyl}-2-(pyridin-3-yl)-2,5-dihydro-4H-pyrazolo[3,4-d]pyrimidin-4-one]	–	–	–	efficacy (kill in %) ([1]; application rate 20 ppm): 100%; chromatographic logP [2, 6]: 2.65; chromatographic logP [2, 7]: 2.63
Cc1cc(F)c(-n2nnc3nn(-c4cccnc4)cc3c2=O)cc1[S+]([O-])CC(F)(F)F (stereo not drawn) [I-1-2, 3-[2-Fluoro-4-methyl-5-(2,2,2-trifluoroethylsulphinyl)phenyl]-6-(3-pyridyl)pyrazolo[3,4-d]triazin-4-one]	100	–	–	efficacy (kill in %) [3]: 80%; chromatographic logP [2, 6]: 2.22; chromatographic logP [2, 7]: 2.19
Cc1cc(F)c(-n2nnc3nn(-c4cccnc4)cc3c2=O)cc1SCC(F)(F)F [I-1-3, 3-[2-fluoro-4-methyl-5-(2,2,2-trifluoroethylsulphanyl)phenyl]-6-(3-pyridyl)pyrazolo[3,4-d]triazin-4-one]	100	–	–	efficacy (kill in %) [3]: 80%; chromatographic logP [2, 6]: 3.18; chromatographic logP [2, 7]: 3.14
Cc1cc(F)c(-n2cnc3nn(-c4cccnc4)cc3c2=O)cc1[S+]([O-])CC(F)(F)F (stereo not drawn) [I-1-4, 5-{2-Fluoro-4-methyl-5-[(2,2,2-trifluoroethyl)sulphinyl]phenyl}-2-(pyridin-3-yl)-2,5-dihydro-4H-pyrazolo[3,4-d]pyrimidin-4-one]	100	–	–	efficacy in % [5]: 100%; chromatographic logP [2, 6]: 1.79; chromatographic logP [2, 7]: 1.78
Cc1cc(F)c(-n2cnc3nn(-c4ccc[n+]([O-])c4)cc3c2=O)cc1[S+]([O-])CC(F)(F)F (stereo not drawn) [I-1-5, 5-{2-Fluoro-4-methyl-5-[(2,2,2-trifluoroethyl)sulphinyl]phenyl}-2-(1-oxidopyridin-1-ium-3-yl)pyrazolo[3,4-d]pyrimidin-4-one]	100	–	–	chromatographic logP [2, 6]: 1.39; chromatographic logP [2, 7]: 1.33
CSc1cccc(-n2cnc3nn(-c4cccnc4)cc3c2=O)c1 [I-1-6]	90	–	–	logP [a] ([2]; acidic range, Table 2): 1.82; logP [b] ([2]; neutral range, Table 2): 1.78
Cc1ccc(-n2cnc3nn(-c4cccnc4)cc3c2=O)cc1SCC(F)(F)F [I-1-7]	90	–	–	logP [a] ([2]; acidic range, Table 2): 2.51; logP [b] ([2]; neutral range, Table 2): 2.56
Cc1ccc(-n2cnc3nn(-c4cccnc4)cc3c2=O)cc1[S+]([O-])CC(F)(F)F (stereo not drawn) [I-1-8]	90	–	–	logP [a] ([2]; acidic range, Table 2): 1.65; logP [b] ([2]; neutral range, Table 2): 1.67
O=c1c2cn(-c3cccnc3)nc2ncn1-c1cc(SCC(F)(F)F)ccc1F [I-1-9]	–	–	–	efficacy in % ([4]; application rate 100 g/ha): 90%; logP [a] ([2]; acidic range, Table 2): 2.32; logP [b] ([2]; neutral range, Table 2): 2.35
O=c1c2cn(-c3cccnc3)nc2ncn1-c1cc([S+]([O-])CC(F)(F)F)ccc1F (stereo not drawn) [I-1-10]	100	–	–	logP [a] ([2]; acidic range, Table 2): 1.53; logP [b] ([2]; neutral range, Table 2): 1.55
O=c1c2cn(-c3cccnc3)nc2ncn1-c1cccc(SCC2CC2)c1 [I-1-11]	100	2.50	2.41	–
O=c1c2cn(-c3cccnc3)nc2ncn1-c1cccc(SCC(F)(F)F)c1 [I-1-12]	90	2.25	2.18	–
O=c1c2cn(-c3cccnc3)nc2ncn1-c1cc(SCC(F)(F)F)c(Cl)cc1F [I-1-13]	–	2.70	2.65	efficacy (kill in %) ([1]; application rate 4 ppm): 100%
O=c1c2cn(-c3cccnc3)nc2ncn1-c1cc(SCC(F)(F)F)c(Cl)cc1Cl [I-1-14]	90	2.91	2.83	–
O=c1c2cn(-c3ccc[n+]([O-])c3)nc2ncn1-c1cc([S+]([O-])CC(F)(F)F)c(Cl)cc1Cl (stereo not drawn) [I-1-15]	90	1.66	1.67	–
O=c1c2cn(-c3cccnc3)nc2ncn1-c1cccc([S+]([O-])CC(F)(F)F)c1 (stereo not drawn) [I-1-16]	90	1.46	1.41	–
Cc1cc(C)c(-n2cnc3nn(-c4cccnc4)cc3c2=O)cc1SCC(F)(F)F [I-1-17]	90	2.75	2.72	–
O=c1c2cn(-c3cccnc3)nc2ncn1-c1cc([S+]([O-])CC(F)(F)F)c(Cl)cc1F (stereo not drawn) [I-1-18]	90	2.02	1.94	–
O=c1c2cn(-c3cccnc3)nc2ncn1-c1cc([S+]([O-])CC(F)(F)F)c(Cl)cc1Cl (stereo not drawn) [I-1-19]	90	2.17	2.09	–
Cc1cc(C)c([S+]([O-])CC(F)(F)F)cc1-n1cnc2nn(-c3cccnc3)cc2c1=O (stereo not drawn) [I-1-20]	–	1.84	1.79	efficacy in % ([4]; application rate 20 g/ha): 90%; efficacy in % [5]: 90%
O=c1c2cn(-c3cccnc3)nc2ncn1-c1cccc([S+]([O-])CC2CC2)c1 (stereo not drawn) [I-1-21]	90	1.27	1.32	–
Cc1cc(F)c(-n2c(C)nc3nn(-c4cccnc4)cc3c2=O)cc1SCC(F)(F)F [I-1-22]	90	2.74	2.69	–
CSc1ccccc1-n1cnc2nn(-c3cccnc3)cc2c1=O [I-2-23]	90	1.65	1.67	–
Cc1cc(F)c(NC(=O)c2cn(-c3cccnc3)nc2N)cc1SCC(F)(F)F [II-1, 3-Amino-N-{2-fluoro-4-methyl-5-[(2,2,2-trifluoroethyl)sulphanyl]phenyl}-1-(pyridin-3-yl)-1H-pyrazole-4-carboxamide]	–	–	–	chromatographic logP [2, 6]: 2.72; chromatographic logP [2, 7]: 2.63
